Test results as given in US20140161729A1, “COFLUORONS AND METHODS OF MAKING AND USING THEM” (CORNELL UNIVERSITY, priority 2011, published 2014).
Each block holds one compound with its values, some of them ahead of it.

Columns and labels:
[1] = Fluorescence measurements of cofluoron models (linker element monomers and their multimers with boronic acids); format: physicochemical; details: for fluorescence change on addition to linker element SL1 (2-hydroxy-3-naphthalenecarboxamide) / fluorescence change on addition to linker element SL3 (gallic acid ethanolamide): boronic acid 300 μM; for fluorescence change on addition to linker element SL1 (2-hydroxy-3-naphthalenecarboxamide): SL1 100 μM, FIG. 6A; for fluorescence change on addition to linker element SL3 (gallic acid ethanolamide): SL3 100 μM, FIG. 6B
[2] = Fluorescence measurements of cofluoron monomers and multimers without target; format: physicochemical; details: for maximum fluorescence emission / wavelength of maximum emission: 100 μM (each), 0.1M phosphate pH 7.4, 100 μM EDTA, excited at 300 nM
Protocol: The fluorescence properties of cofluorons were measured in 0.1M HEPES or 0.1M phosphate buffer at pH 7.4 in 96- or 384-well black plates using a Molecular Dynamics SpectraMax M5 plate reader. Cofluoron samples were excited at discrete wavelengths and the fluorescence emission was scanned across a range of wavelengths (between 400 and 750 nm). The fluorescence properties of individual cofluoron monomers, as well as the fluorescent properties of cofluoron multimers formed by association of different combinations of cofluoron monomers, were tested and compared.
Fluorescence emission spectra were recorded for cofluoron monomers T147 and T27F individually at a concentration of 100 μM as well as in combination where each cofluoron monomer was at a concentration of 100 μM, in a 0.1M phosphate buffer at pH 7.4 containing 100 μM EDTA. The samples were excited at 300 nM and fluorescence emissions were measured between 300-750 nm on a Spectramax M5 spectrofluorometer. […] The fluorescence emission was enhanced to 4062 RFU and the emission wavelength shifted to 420 nm when the two cofluoron monomers were combined (See FIG. 19).
FIGS. 21 through 34 show the results of fluorescent measurements on the monomers T27 or T27F containing a dihydroxy moiety and multimers formed by mixing the dihydroxy compound with various monomer binding partners containing a boronic acid. These multimers have increased affinity for human mast cell β2-tryptase as compared to the monomers. The fluorescence properties of cofluorons were measured 0.1M phosphate buffer at pH 7.4 containing either 100 or 200 μM EDTA, in 96- or 384-well black plates using a Molecular Dynamics SpectraMax M5 plate reader. Cofluoron samples were excited at discrete wavelengths and the fluorescence emission was scanned across a range of wavelengths (between 400 and 750 nm).

Tryptase = Tryptase (Homo sapiens, UniProt P20231); experiment: Fluorescence of cofluoron pairs in the presence or absence of Tryptase; format: binding; details: phosphate buffer pH 7.4, 200 mM NaCl, excited at 360 nm
Protocol: The fluorescence emission measurements on cofluorons binding to the target tryptase were measured in 0.1M HEPES or 0.1M phosphate buffer at pH 7.4 in 96- or 384-well black plates using a Molecular Dynamics SpectraMax M5 plate reader. Cofluoron samples were excited at discrete wavelengths and the fluorescence emission was scanned across a range of wavelengths (between 400 and 750 nm). The fluorescence properties of cofluoron monomers and cofluoron multimers in the presence of 3 μM tryptase as well as in the absence of tryptase were measured and compared.
To test whether the cofluorons retained their fluorescence when binding to the target Tryptase, fluorescence were measured on the cofluoron multimers formed by mixing 6 μM T43 with 6 μM T34, T11, T35, and T37, respectively, in the presence or absence of 5 μM Tryptase, in aqueous 50 μM phosphate buffer (pH 7.4) containing 200 mM NaCl. Excitation was at 360 nm, and the portion of emission containing meaningful signal is between 400 nm and 550 nm.

[3] = molecular target: human mast cell β2-tryptase (Homo sapiens, UniProt P20231); experiment: Binding of cofluoron monomers and dimers to tryptase (IC50, affinity); details: 1:1 combination with T27 or T27F
human mast cell line = experiment: Intracellular fluorescence of cofluorons (microscopy under UV excitation); format: cell-based; details: 100 μM (each) cofluoron monomer
Protocol: Human mast cell β2-tryptase containing cells, grown in standard media, were incubated with 100 μM monomer 1 for 15 minutes at room temperature, followed by the addition of 100 μM monomer 2. Stock concentrations of cofluorons, 50 mM in DMSO, were diluted in media immediately before use. For localization studies, 10.5% PEG and 0.0005% berberine were added to costain mast cell granules. Fluorescent signals were detected using an inverted CKX41 Olympus microscope under UV excitation and an 100× oil immersion lens. Images were recorded using an Olympus DP20 digital camera.

[4] = 100 μM 2-hydroxy-3-naphthalenecarboxamide + 300 μM boronic acid, 0.1M phosphate pH 7.4, 50% DMSO, excited at 350 nm

Tryptase, sequence (P20231 31-275): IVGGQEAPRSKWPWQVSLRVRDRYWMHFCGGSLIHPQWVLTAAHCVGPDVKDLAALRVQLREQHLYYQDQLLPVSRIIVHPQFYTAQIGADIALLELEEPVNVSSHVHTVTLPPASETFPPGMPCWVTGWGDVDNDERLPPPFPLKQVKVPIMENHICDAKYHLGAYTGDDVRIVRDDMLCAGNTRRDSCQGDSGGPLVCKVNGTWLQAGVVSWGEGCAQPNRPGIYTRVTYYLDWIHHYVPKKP
human mast cell β2-tryptase, sequence (P20231 31-275): as above

enhancement of fluorescent emission signal at 420 nm over monomer 2-hydroxy-3-naphthalenecarboxamide [1, 4]: about 40 fold
fluorescent signal enhancement of multimer with 2-hydroxy-3-naphthalenecarboxamide ([1]; 100 μM 2-hydroxy-3-naphthalenecarboxamide + 300 μM boronic acid, phosphate pH 7.4, absence of DMSO, excited at 350 nm): 30 fold
SMILES: OB(O)c1cc(F)cc(F)c1 [3,5-difluorophenylboronic acid]

enhancement of fluorescent emission signals at 460 nm over monomer methyl 3,4,5-trihydroxybenzoate ([1]; 100 μM methyl 3,4,5-trihydroxybenzoate + 300 μM boronic acid, 0.1M phosphate pH 7.4, 50% DMSO, excited at 350 nm): about 7 fold
SMILES: OCc1ccccc1B(O)O [2-(hydroxymethyl)phenylboronic acid]

SMILES: OB(O)c1cccnc1F [2b, 2-fluoropyridine-3-boronic acid]
fluorescence change on addition to linker element SL1 (2-hydroxy-3-naphthalenecarboxamide) [1]: stronger fluorescent signal, as well as a fluorescent emission wavelength shift to a lower wavelength
fluorescence change on addition to linker element SL3 (gallic acid ethanolamide) [1]: stronger fluorescent signal, as well as a fluorescent emission wavelength shift to a higher wavelength

emission peak ([2]; T43 100 μM, alone or with 100 μM boronic acid partners, 0.1M phosphate pH 7.4 aqueous, excited at 360 nm): 440 nm
fluorescent signal between 400 nm and 550 nm, monomer without boronic acid partner (Tryptase; 6 μM): essentially no fluorescent signal
SMILES: NCc1cccc(C2CCN(C(=O)/C=C/c3cc(O)c(O)c(O)c3)CC2)c1 [T43]

maximum fluorescence emission [2]: 194 RFU
wavelength of maximum emission [2]: 390 nm
SMILES: CN(Cc1ccccc1B(O)O)c1ccc(C(=O)N2CCC(c3cccc(CN)c3)CC2)cc1 [T147, (2-(((4-(4-(3-(aminomethyl)phenyl)piperidine-1-carbonyl)phenyl)(methyl)amino)methyl)phenyl)boronic acid]
affinity to human β-tryptase of dimer versus monomers [3]: higher affinity to human β-tryptase than either monomer

fluorescent signal of dimer with T43 in the absence of tryptase (Tryptase; 6 μM each): hardly any fluorescent signal
fluorescent signal enhancement in the presence of tryptase versus in the absence of tryptase (Tryptase; pair with T43, 6 μM each, 5 μM Tryptase): 3 fold
SMILES: NCc1cccc(C2CCN(C(=O)/C=C/c3cccc(B(O)O)c3)CC2)c1 [T34]

SMILES: OB(O)c1cc(F)cc(F)c1 [2c, 3,5-difluorophenylboronic acid]
fluorescence change on addition to linker element SL1 (2-hydroxy-3-naphthalenecarboxamide) [1]: stronger fluorescent signal, as well as a fluorescent emission wavelength shift to a lower wavelength
fluorescence change on addition to linker element SL3 (gallic acid ethanolamide) [1]: stronger fluorescent signal, as well as a fluorescent emission wavelength shift to a higher wavelength

SMILES: OB(O)c1cc2ccccc2o1 [2d, benzofuran-2-boronic acid]
fluorescence change on addition to linker element SL1 (2-hydroxy-3-naphthalenecarboxamide) [1]: stronger fluorescent signal, as well as a fluorescent emission wavelength shift to a lower wavelength
fluorescence change on addition to linker element SL3 (gallic acid ethanolamide) [1]: stronger fluorescent signal, as well as a fluorescent emission wavelength shift to a higher wavelength

fluorescent emission maximum ([1]; 2-hydroxy-3-naphthalenecarboxamide 100 μM, alone or with 300 μM boronic acids, 0.1M phosphate pH 7.4, 50% DMSO, excited at 350 nm): 500 nm
fluorescent emission maximum ([1]; 2-hydroxy-3-naphthalenecarboxamide alone or with boronic acids, phosphate pH 7.4, absence of DMSO, excited at 350 nm): about 510 nm
SMILES: NC(=O)c1cc2ccccc2cc1O [2-hydroxy-3-naphthalenecarboxamide, 2-Hydroxy-3-naphthalenecarboxamide]

fluorescent emission intensity at 390 nm, fold higher than 3,4,5-trihydroxybenzamide alone ([1]; multimer with 3,4,5-trihydroxybenzamide, 100 μM each, 0.1M HEPES pH 7.9, 50% DMSO, excited at 340 nm): 10 fold
SMILES: OB(O)c1ccccc1F [2-fluorophenylboronic acid]

maximum fluorescence emission [2]: 380 RFU
wavelength of maximum emission [2]: 520 nm
SMILES: NCc1ccc(F)c(C2CCN(C(=O)c3cccc4cc(O)c(O)cc34)CC2)c1 [T27F]

increase in fluorescence emission intensity of 7,8-dihydroxy-4-methylcoumarin on forming oligomer with boronic acid partner ([1]; 100 μM 7,8-dihydroxy-4-methylcoumarin + 300 μM boronic acid, 0.1M phosphate pH 7.4, 50% DMSO, excitation 350 nm, emission 520 nm): did not provide any enhanced signal
SMILES: CN(C)c1ccc(B(O)O)cn1 [2-(N,N-dimethylamino)pyridine-5-boronic acid]

fluorescent emission peak ([1]; methyl 3,4,5-trihydroxybenzoate 100 μM, alone or with 300 μM boronic acids, 0.1M phosphate pH 7.4, 50% DMSO, excited at 350 nm): about 390 nm
SMILES: COC(=O)c1cc(O)c(O)c(O)c1 [methyl 3,4,5-trihydroxybenzoate]

SMILES: Cl.NCc1cccc(C2CCN(C(=O)/C=C/c3ccc(O)c(O)c3)CC2)c1 [T24, (E)-1-(4-(3-(aminomethyl)phenyl)piperidin-1-yl)-3-(3,4-dihydroxyphenyl)prop-2-en-1-one hydrochloride]
fluorescent staining of cells (human mast cell line): somewhat brighter staining

enhancement of fluorescent emission signal at 420 nm over monomer 2-hydroxy-3-naphthalenecarboxamide [1, 4]: about 40 fold
SMILES: OB(O)c1cc2ccccc2o1 [benzofuran-2-boronic acid]

SMILES: NCc1cccc(C2CCN(C(=O)c3cccc4sc(B(O)O)cc34)CC2)c1 [T37]
fluorescent signal enhancement of multimer formed with T43, among all multimers tested ([2]; 100 μM T43 + 100 μM partner, 0.1M phosphate pH 7.4 aqueous, excited at 360 nm): strongest fluorescent signal enhancements

enhancement of fluorescent emission signal at 420 nm over monomer 2-hydroxy-3-naphthalenecarboxamide [1, 4]: more than 80 fold
SMILES: OB(O)c1cccnc1F [2-fluoropyridine-3-boronic acid]
